Reference: patent US20090227781A1, “Glycolipid Derivative and Drug Containing the Same as Active Component” (priority 2005, published 2009)

Columns and labels:
[1] = tested on: experimental autoimmune encephalomyelitis (EAE); details: Nonpatent Documents 2 to 4, Patent Document 2; cited from earlier work
[2] = tested on: collagen induced arthritis (CIA); details: Nonpatent Documents 2 to 4, Patent Document 2; cited from earlier work
[3] = tested on: mononuclear cells; experiment: Effect on liver mononuclear cells of Jα18 gene-deficient mice with no NKT cells; format: cell-based
Experimental: (§1) Mononuclear cells were separated from the livers of C57BL/6J mice (8 weeks old, female) and incubated with the compound for 48 hours. […] The reaction by α-GC and slight intake of tritium and the slight amount of cytokine production observed for the compound at 30 ng/ml were not seen in Jα18 gene-deficient mice with no NKT cells, and, therefore, these reactions were confirmed to be NKT cell-dependent reactions (see FIG. 4).

[4] = tested on: NKT cells; experiment: Effect of compound on NKT cells: liver mononuclear cells incubated with compound for 48 hours; format: cell-based, C57BL/6J mice; details: 48 hours incubation; FIG. 4
Experimental: as §1

Row | Structure (SMILES) | effectiveness in EAE, animal model of multiple sclerosis [1] | effectiveness in CIA, animal model of rheumatoid arthritis [2] | reaction (tritium intake, cytokine production) in mice with no NKT cells [3] | IFN-γ production (ELISA, supernatant) [4] | IL-4 production (ELISA, supernatant) [4] | cell proliferation (intake of tritium thymidine) [4]
1 | CCCCCCCCCCCCCCCCCCCCCCCC(=O)N[C@@H](COC1OC(CO)C(O)C(O)C1O)[C@H](O)[C@H](O)CCCCC (stereo partly drawn) [OCH] | high effectiveness | high effectiveness |  |  |  | 
2 | CCCCCCCCCCCCCCCCCCCCCCCCCC(=O)N[C@@H](COC1OC(CO)C(O)C(O)C1O)[C@H](O)[C@H](O)CCCCCCCCCCCCCC (stereo partly drawn) [α-GC, α-galactosyl ceramide] |  |  | not seen | caused | caused | caused
